In patent US10165789B2, “Acerola powder for use as a substitute for ascorbic acid in the agri-food field” (DIANA NATURALS, priority 2012, dated 2019):
Marks after values point to notes of the source that are not given here.

Experiments:
[1] = Antiradical activity, trapping of the free radical DPPH; format: biochemical; settings: fixed concentration of 0.44 mg/ml ascorbic acid eq; tested in combination with Mg(OH)2 in the proportions present in the powder of the invention
[2] = Overall antioxidant power

## O=C1O[C@H]([C@@H](O)CO)C(O)=C1O [Ascorbic acid]
[1]
  Antiradical activity (% of trapping of the free radical DPPH): 70.6* %
[2]
  Overall antioxidant power: 34 g/100 g of product in ascorbic acid eq
